Values quoted from earlier work, collected in patent US20230104358A1 (priority 2021, published 2023).

How the values were obtained:
[1] = biological target: β2 adrenergic receptor (Homo sapiens, UniProt P07550)
[2] = biological target: dopamine Type 2 (D2) receptor (Homo sapiens, UniProt P14416)
[3] = tested on: α2 adrenergic receptor
[4] = biological target: T1, serotonin 5HT1C receptor (Homo sapiens, UniProt P28335)
T1 sequence (P28335 33-458): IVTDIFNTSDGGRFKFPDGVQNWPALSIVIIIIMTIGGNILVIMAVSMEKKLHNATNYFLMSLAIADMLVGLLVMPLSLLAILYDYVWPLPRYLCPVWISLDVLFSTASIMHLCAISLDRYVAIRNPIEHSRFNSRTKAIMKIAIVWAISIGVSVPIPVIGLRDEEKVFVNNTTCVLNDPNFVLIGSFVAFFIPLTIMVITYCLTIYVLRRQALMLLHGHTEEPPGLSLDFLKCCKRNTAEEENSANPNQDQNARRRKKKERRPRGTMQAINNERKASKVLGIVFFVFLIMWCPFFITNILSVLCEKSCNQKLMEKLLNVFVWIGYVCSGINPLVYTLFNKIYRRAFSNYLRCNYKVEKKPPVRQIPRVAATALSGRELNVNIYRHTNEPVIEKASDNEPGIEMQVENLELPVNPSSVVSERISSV

[5] = biological target: β1 adrenergic receptor (Homo sapiens, UniProt P08588)
β1 adrenergic receptor, sequence (P08588 whole entry): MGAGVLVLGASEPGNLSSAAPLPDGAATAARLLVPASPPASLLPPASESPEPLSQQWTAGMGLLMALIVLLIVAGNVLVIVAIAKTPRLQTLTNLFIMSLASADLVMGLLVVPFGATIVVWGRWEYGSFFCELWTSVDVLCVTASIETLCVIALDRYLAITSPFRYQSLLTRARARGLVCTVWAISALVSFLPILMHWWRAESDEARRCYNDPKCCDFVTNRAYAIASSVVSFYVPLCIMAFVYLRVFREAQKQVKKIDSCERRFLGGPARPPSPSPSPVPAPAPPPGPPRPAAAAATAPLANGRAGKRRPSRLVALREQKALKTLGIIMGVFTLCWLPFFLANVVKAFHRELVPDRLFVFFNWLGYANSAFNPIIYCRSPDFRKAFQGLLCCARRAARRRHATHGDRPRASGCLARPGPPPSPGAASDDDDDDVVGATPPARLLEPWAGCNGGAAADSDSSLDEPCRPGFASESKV

[6] = biological target: T2, serotonin 5HT1A receptor (Homo sapiens, UniProt P08908)
T2 sequence (P08908 1-422): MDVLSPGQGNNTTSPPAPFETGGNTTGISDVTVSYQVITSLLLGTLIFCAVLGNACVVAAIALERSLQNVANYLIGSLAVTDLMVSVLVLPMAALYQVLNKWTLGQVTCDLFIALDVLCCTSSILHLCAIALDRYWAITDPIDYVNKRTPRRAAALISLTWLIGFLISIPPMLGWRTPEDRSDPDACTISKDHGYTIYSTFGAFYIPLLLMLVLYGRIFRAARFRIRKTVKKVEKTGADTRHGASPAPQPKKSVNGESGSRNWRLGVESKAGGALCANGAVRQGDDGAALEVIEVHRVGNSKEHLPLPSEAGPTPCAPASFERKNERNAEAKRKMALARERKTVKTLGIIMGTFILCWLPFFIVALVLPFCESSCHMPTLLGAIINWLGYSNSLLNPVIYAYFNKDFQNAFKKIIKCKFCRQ

[7] = tested on: haloperidol-sensitive sigma site
[8] = tested on: α1 adrenergic receptor
[9] = biological target: dopamine D1 (Homo sapiens, UniProt P21728)
dopamine D1, sequence (P21728 whole entry): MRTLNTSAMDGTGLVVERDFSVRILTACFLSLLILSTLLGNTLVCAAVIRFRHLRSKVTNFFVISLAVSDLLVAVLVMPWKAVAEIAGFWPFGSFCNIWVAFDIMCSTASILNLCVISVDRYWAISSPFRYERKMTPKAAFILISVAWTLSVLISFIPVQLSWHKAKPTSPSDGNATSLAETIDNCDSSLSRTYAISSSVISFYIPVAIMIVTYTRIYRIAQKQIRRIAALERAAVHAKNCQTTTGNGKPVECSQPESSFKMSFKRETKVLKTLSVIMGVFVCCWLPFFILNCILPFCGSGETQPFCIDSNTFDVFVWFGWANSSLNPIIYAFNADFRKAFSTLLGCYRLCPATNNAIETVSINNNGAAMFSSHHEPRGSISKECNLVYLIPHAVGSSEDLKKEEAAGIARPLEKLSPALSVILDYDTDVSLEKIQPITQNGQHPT

[10] = biological target: serotonin 5HT1D receptor (Homo sapiens, UniProt P28221)
serotonin 5HT1D receptor, sequence (P28221 whole entry): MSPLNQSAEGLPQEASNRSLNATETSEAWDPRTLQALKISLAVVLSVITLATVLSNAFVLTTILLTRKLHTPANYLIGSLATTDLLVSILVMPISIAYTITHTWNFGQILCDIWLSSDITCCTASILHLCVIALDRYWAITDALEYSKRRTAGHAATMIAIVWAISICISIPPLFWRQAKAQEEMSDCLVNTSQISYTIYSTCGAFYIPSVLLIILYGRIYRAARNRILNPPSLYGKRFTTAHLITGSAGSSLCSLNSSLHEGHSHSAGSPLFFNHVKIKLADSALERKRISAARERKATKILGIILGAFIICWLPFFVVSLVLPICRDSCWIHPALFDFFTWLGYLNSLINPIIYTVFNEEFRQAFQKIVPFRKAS

dopamine Type 2 (D2) receptor, sequence (P14416 whole entry): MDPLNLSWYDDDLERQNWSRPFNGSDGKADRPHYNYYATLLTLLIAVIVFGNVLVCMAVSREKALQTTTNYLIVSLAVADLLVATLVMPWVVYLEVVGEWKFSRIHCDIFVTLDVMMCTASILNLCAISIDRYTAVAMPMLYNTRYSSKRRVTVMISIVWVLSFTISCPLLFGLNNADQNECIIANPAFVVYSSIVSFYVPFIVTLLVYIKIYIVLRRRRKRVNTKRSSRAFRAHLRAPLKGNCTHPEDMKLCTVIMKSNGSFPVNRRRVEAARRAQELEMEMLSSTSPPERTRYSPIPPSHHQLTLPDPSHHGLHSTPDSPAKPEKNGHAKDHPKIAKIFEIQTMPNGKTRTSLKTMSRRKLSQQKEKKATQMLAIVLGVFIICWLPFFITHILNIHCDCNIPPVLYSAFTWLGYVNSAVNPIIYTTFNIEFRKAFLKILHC
β2 adrenergic receptor, sequence (P07550 whole entry): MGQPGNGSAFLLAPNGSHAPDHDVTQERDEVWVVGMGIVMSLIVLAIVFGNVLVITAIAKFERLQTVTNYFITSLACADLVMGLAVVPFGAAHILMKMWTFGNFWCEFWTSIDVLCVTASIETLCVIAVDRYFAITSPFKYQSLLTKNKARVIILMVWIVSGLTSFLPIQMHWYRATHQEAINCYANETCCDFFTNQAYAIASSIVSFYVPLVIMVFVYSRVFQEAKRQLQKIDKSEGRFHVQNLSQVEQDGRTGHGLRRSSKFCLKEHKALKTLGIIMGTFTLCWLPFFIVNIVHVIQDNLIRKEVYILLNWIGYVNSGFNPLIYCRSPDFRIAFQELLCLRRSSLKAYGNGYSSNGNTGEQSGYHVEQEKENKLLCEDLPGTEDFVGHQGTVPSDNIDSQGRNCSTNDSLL

In the case of `Cc1nc2n(c(=O)c1CCN1CCC(c3noc4cc(F)ccc34)CC1)CCCC2` [Risperidone], the “affinity for β2 adrenergic receptor” value [1] is listed as “no affinity”, the “affinity for dopamine Type 2 (D2) receptor” value [2] is listed as “high affinity” and the “affinity for α2 adrenergic receptor” value [3] is listed as “high affinity”. For the same compound, the “affinity for serotonin 5HT1C receptor” value [4] was “low to moderate affinity”, the “affinity for β1 adrenergic receptor” value [5] was “no affinity” and the “affinity for serotonin 5HT1A receptor” value [6] was “low to moderate affinity”. The “affinity for haloperidol-sensitive sigma site” value [7] was “weak affinity”, the “affinity for α1 adrenergic receptor” value [8] was “high affinity” and the “affinity for dopamine D1” value [9] was “weak affinity”. For the same compound, the “affinity for serotonin 5HT1D receptor” value [10] was “low to moderate affinity”.
